In patent publication US12527776B2, “Treatment of ciliopathies using inhibitors of glucosylceramide synthase (GCS)” (GENZYME CORPORATION, priority 2019, dated 2026):

How the values were obtained:
Type in all cases: in vivo, human
[1] = Phase 1 Study 1 Part 1: ascending single-dose pharmacokinetics in healthy volunteers
From the text: Compound 2 is also known as venglustat.
(§1) Study 1 was a 2-part single-center trial in healthy adult male volunteers.
Part 1 of the study enrolled and randomized 55 healthy men (placebo, n=14; 2-, 5-, 15, 25-, 50, and 100-mg doses, n=6 each; 150-mg dose, n=5). Eight healthy men participated in Part 2. […]

[2] = tested on: plasma GL-1, GL-3, and GM3 concentrations; experiment: Phase 1 Study 2: pharmacodynamic endpoints (plasma GL-1, GL-3, GM3)
Experimental: The study enrolled and randomized 36 healthy adults (19 men and 17 women) (n=9 each to group).
Pharmacodynamic endpoints (plasma GL-1, GL-3, and GM3 concentrations) were assessed on Days 1-5, 8, 11, 13, and 14, at 0 hours […]; and on Day 15, at 24 hours after the Day 14 dose.

[3] = Phase 1 Study 1 Part 2: PK with and without a high-fat meal; conditions: 5 mg single oral dose
From the text: as §1
Part 1 of the study enrolled and randomized 55 healthy men (placebo, n=14; 2-, 5-, 15, 25-, 50, and 100-mg doses, n=6 each; 150-mg dose, n=5). Eight healthy men participated in Part 2.
After a 7-day washout period, participants were crossed over to the other condition.

[4] = Phase 1 studies: safety and tolerability; conditions: multiple ascending dose study, vs placebo, any dose
Experimental: In all studies, safety profile was assessed by monitoring treatment-emergent adverse events (TEAEs) through 10 days after last dose of study medication, including serious adverse events [SAEs]), ECG monitoring, laboratory values, and physical examinations.

[5] = across the 3 dose groups (5, 10, 20 mg once daily)

CL/F, Geometric mean ([1]; single oral dose 2 mg): 6.3 L/h
CL/F, Mean ([1]; single oral dose 2 mg): 6.43 L/h
CL/F, Geometric mean ([1]; single oral dose 5 mg): 5.8 L/h
CL/F, Mean ([1]; single oral dose 5 mg): 5.86 L/h
CL/F, Geometric mean ([1]; single oral dose 15 mg): 5.6 L/h
CL/F, Mean ([1]; single oral dose 15 mg): 5.85 L/h
CL/F, Geometric mean ([1]; single oral dose 25 mg): 5.0 L/h
CL/F, Mean ([1]; single oral dose 25 mg): 5.18 L/h
CL/F, Geometric mean ([1]; single oral dose 50 mg): 5.5 L/h
CL/F, Mean ([1]; single oral dose 50 mg): 5.75 L/h
CL/F, Geometric mean ([1]; single oral dose 100 mg): 5.3 L/h
CL/F, Mean ([1]; single oral dose 100 mg): 5.38 L/h
CL/F, Geometric mean ([1]; single oral dose 150 mg): 5.6 L/h
CL/F, Mean ([1]; single oral dose 150 mg): 5.80 L/h
median time of maximal plasma concentration (Cmax) ([1]; single oral doses of 2 to 150 mg): 3 to 5.5 h
effect of high-fat meal on exposure compared with fasting [3]: no effect
SMILES: CC(C)(NC(=O)O[C@@H]1CN2CCC1CC2)c1csc(-c2ccc(F)cc2)n1 [Compound 2, (S)-quinuclidin-3-yl 2-(2-(4-fluorophenyl)thiazol-4-yl)propan-2-ylcarbamate]
Mean estimated plasma GL-1 reductions from baseline attributable to Ctrough ([2]; 5 mg group, Ctrough 19.0 ng/mL): 67.0%
Mean estimated plasma GL-1 reductions from baseline attributable to Ctrough ([2]; 10 mg group, Ctrough 47.5 ng/mL): 74.4%
Mean estimated plasma GL-1 reductions from baseline attributable to Ctrough ([2]; 20 mg group, Ctrough 69.9 ng/mL): 76.3%
subjects with GL-1 below LLOQ ([2]; Day 15, 5 mg group (n=9)): 3 subjects
subjects with GL-3 below LLOQ ([2]; Day 15, 5 mg group (n=9)): 9 subjects
Mean calculated GL-1 reductions from baseline ([2]; Day 15, 5 mg once daily): 41.9%
subjects with GL-1 below LLOQ ([2]; Day 15, 10 mg group (n=9)): 5 subjects
subjects with GL-3 below LLOQ ([2]; Day 15, 10 mg group (n=9)): 7 subjects
subjects with GM3 below LLOQ ([2]; Day 15, 10 mg group (n=9)): 1 subjects
Mean calculated GL-1 reductions from baseline ([2]; Day 15, 10 mg once daily): 69.6%
subjects with GL-1 below LLOQ ([2]; Day 15, 20 mg group (n=9)): 9 subjects
subjects with GL-3 below LLOQ ([2]; Day 15, 20 mg group (n=9)): 9 subjects
subjects with GM3 below LLOQ ([2]; Day 15, 20 mg group (n=9)): 2 subjects
Mean calculated GL-1 reductions from baseline ([2]; Day 15, 20 mg once daily): 74.6%
plasma GL-1 levels vs baseline [2, 5]: decreased from baseline time- and dose-dependently
plasma GM3 levels vs baseline [2, 5]: decreased from baseline time- and dose-dependently
Day on which maximal sustained GM3 decreases started ([2]; all dose groups): 13 days
ECG parameters [4]: no ECG parameters changed statistically significantly
